Measured values taken from patent US7994140B2, “Classes of compounds that interact with GPCRs” (Alchemia Limited, priority 2002, dated 2011).

Target: T1, MC4 (Homo sapiens, UniProt P32245)
T1 construct: purchased Perkin Elmer BioSignal; host or cells: HEK 293
Assay: GPCR radioligand binding (RLB) assay, melanocortin MC4, [125I]NDP-αMSH
Conditions: 1.0 micromolar compound
Method in brief: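 Membranes from HEK 293 cells expressing the recombinant human receptor were equilibrated with [125I]SST-14 (SST5) or [125I]NDP-αMSH (MC4), then compound added for an optimized incubation. Bound ligand separated by filtration on PEI-coated glass fiber and counted by liquid scintillation.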

T1 sequence (P32245 whole entry): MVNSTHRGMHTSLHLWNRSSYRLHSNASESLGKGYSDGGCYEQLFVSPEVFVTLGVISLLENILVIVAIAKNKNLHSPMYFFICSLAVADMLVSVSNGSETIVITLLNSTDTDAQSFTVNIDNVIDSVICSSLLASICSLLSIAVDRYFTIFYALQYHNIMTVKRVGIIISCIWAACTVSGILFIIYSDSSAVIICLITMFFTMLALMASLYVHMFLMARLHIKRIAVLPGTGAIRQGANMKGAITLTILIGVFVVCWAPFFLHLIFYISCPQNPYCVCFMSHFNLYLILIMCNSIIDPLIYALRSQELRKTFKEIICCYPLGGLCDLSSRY

Row | SMILES | MC4 Inhibition at 1.0 Micromolar
1 | NCCC(=O)NC1O[C@H](CO)[C@@H](O)[C@H](OCc2ccccc2)[C@H]1NC(=O)c1ccccc1 (stereo partly shown) [Compound 502] | + (Indicates inhibition greater than . . . 50%)

Same assay, conditions: 4.0 Micromolar; Example Library 10

Row | SMILES | MC4 Inhibition at 4.0 Micromolar
2 | NCCC(=O)N[C@H]1C(OCc2ccc(Cl)cc2)O[C@H](COCc2ccc(Cl)cc2)[C@@H](O)[C@@H]1OCc1ccccc1 (stereo partly shown) [Compound 385] | + (Indicates inhibition greater than . . . 50%)
3 | NCC(=O)N[C@H]1C(OCc2ccc3ccccc3c2)O[C@H](COCc2ccc(Cl)cc2)[C@@H](O)[C@@H]1OCc1ccccc1 (stereo partly shown) [Compound 364] | + (Indicates inhibition greater than . . . 50%)
4 | NCCC(=O)N[C@H]1C(OCc2ccc3ccccc3c2)O[C@H](COCc2ccc(Cl)cc2)[C@@H](O)[C@@H]1OCc1ccc2ccccc2c1 (stereo partly shown) [Compound 359] | + (Indicates inhibition greater than . . . 50%)
5 | NCC(=O)N[C@H]1C(OCc2ccc3ccccc3c2)O[C@H](COCc2ccc3ccccc3c2)[C@@H](O)[C@@H]1OCc1ccc2ccccc2c1 (stereo partly shown) [Compound 356] | + (Indicates inhibition greater than . . . 50%)
6 | NCCC(=O)N[C@H]1C(OCc2ccc3ccccc3c2)O[C@H](COCc2ccc3ccccc3c2)[C@@H](O)[C@@H]1OCc1ccc2ccccc2c1 (stereo partly shown) [Compound 357] | + (Indicates inhibition greater than . . . 50%)
7 | NCCCC(=O)N[C@H]1C(OCc2ccc3ccccc3c2)O[C@H](COCc2ccc(Cl)cc2)[C@@H](O)[C@@H]1OCc1ccccc1 (stereo partly shown) [Compound 375] | + (Indicates inhibition greater than . . . 50%)
8 | NCCCC(=O)N[C@H]1C(OCc2ccc(Cl)cc2)O[C@H](COCc2ccc3ccccc3c2)[C@@H](O)[C@@H]1OCc1ccc2ccccc2c1 (single isomer, unassigned) [Compound 389] | + (Indicates inhibition greater than . . . 50%)
9 | NCCCC(=O)N[C@H]1C(OCc2ccc(Cl)cc2)O[C@H](COCc2ccc3ccccc3c2)[C@@H](O)[C@@H]1OCc1ccccc1 (stereo partly shown) [Compound 395] | + (Indicates inhibition greater than . . . 50%)
10 | NCCCC(=O)N[C@H]1C(OCc2ccc3ccccc3c2)O[C@H](COCc2ccc3ccccc3c2)[C@@H](O)[C@@H]1OCc1ccc(Cl)cc1 (single isomer, unassigned) [Compound 365] | + (Indicates inhibition greater than . . . 50%)
11 | NCC(=O)N[C@H]1C(OCc2ccc(Cl)cc2)O[C@H](COCc2ccc(Cl)cc2)[C@@H](O)[C@@H]1OCc1ccc2ccccc2c1 (stereo partly shown) [Compound 382] | + (Indicates inhibition greater than . . . 50%)
12 | NCCCC(=O)N[C@H]1C(OCc2ccc(Cl)cc2)O[C@H](COCc2ccccc2)[C@@H](O)[C@@H]1OCc1ccc(Cl)cc1 (stereo partly shown) [Compound 387] | + (Indicates inhibition greater than . . . 50%)
13 | NCCCC(=O)N[C@H]1C(OCc2ccc(Cl)cc2)O[C@H](COCc2ccc(Cl)cc2)[C@@H](O)[C@@H]1OCc1ccc2ccccc2c1 (single isomer, unassigned) [Compound 393] | + (Indicates inhibition greater than . . . 50%)

Same assay, conditions: 4.0 Micromolar; Example Library 11

Row | SMILES | MC4 Inhibition at 4.0 Micromolar
14 | NCCC(=O)NC1C(OCc2ccccc2)OC(COCc2ccccc2)C(O)C1OCc1ccc(Cl)cc1 (stereo not shown) [Compound 398] | + (Indicates inhibition greater than . . . 50%)
15 | NCCC(=O)NC1C(OCc2ccccc2)OC(COCc2ccccc2)C(O)C1OCc1ccccc1 (stereo not shown) [Compound 404] | + (Indicates inhibition greater than . . . 50%)
16 | NCCC(=O)NC1C(OCc2ccc3ccccc3c2)OC(COCc2ccccc2)C(O)C1OCc1ccc2ccccc2c1 (stereo not shown) [Compound 417] | + (Indicates inhibition greater than . . . 50%)
17 | NCCCC(=O)NC1C(OCc2ccccc2)OC(COCc2ccc(Cl)cc2)C(O)C1OCc1ccccc1 (stereo not shown) [Compound 412] | + (Indicates inhibition greater than . . . 50%)
18 | NCCC(=O)NC1C(OCc2ccc3ccccc3c2)OC(COCc2ccccc2)C(O)C1OCc1ccc(Cl)cc1 (stereo not shown) [Compound 414] | + (Indicates inhibition greater than . . . 50%)
19 | NCCC(=O)NC1C(OCc2ccc3ccccc3c2)OC(COCc2ccc3ccccc3c2)C(O)C1OCc1ccccc1 (stereo not shown) [Compound 419] | + (Indicates inhibition greater than . . . 50%)
20 | NCCCC(=O)NC1C(OCc2ccc3ccccc3c2)OC(COCc2ccccc2)C(O)C1OCc1ccc(Cl)cc1 (stereo not shown) [Compound 423] | + (Indicates inhibition greater than . . . 50%)
21 | NCCC(=O)NC1C(OCc2ccc3ccccc3c2)OC(COCc2ccc3ccccc3c2)C(O)C1OCc1ccc2ccccc2c1 (stereo not shown) [Compound 416] | + (Indicates inhibition greater than . . . 50%)
22 | NCCC(=O)NC1C(OCc2ccc3ccccc3c2)OC(COCc2ccc(Cl)cc2)C(O)C1OCc1ccc(Cl)cc1 (stereo not shown) [Compound 415] | + (Indicates inhibition greater than . . . 50%)

Same assay, conditions: 4.0 Micromolar; Example Library 12

Row | SMILES | MC4 Inhibition at 4.0 Micromolar
23 | N=C(N)NCCC(=O)N[C@H]1C(OCc2ccccc2)O[C@H](COCCc2ccccc2)[C@@H](O)[C@@H]1OCc1ccc(-c2ccccc2)cc1 (stereo partly shown) [Compound 462] | + (Indicates inhibition greater than . . . 50%)
24 | N=C(N)NCCC(=O)N[C@H]1C(OCc2ccccc2)O[C@H](COCc2ccccc2)[C@@H](O)[C@@H]1OCc1ccc(Cl)cc1 (stereo partly shown) [Compound 449] | + (Indicates inhibition greater than . . . 50%)
25 | N=C(N)NCC(=O)N[C@H]1C(OCc2ccccc2)O[C@H](COCc2ccccc2)[C@@H](O)[C@@H]1OCc1ccc(Cl)cc1 (stereo partly shown) [Compound 434] | + (Indicates inhibition greater than . . . 50%)
26 | N=C(N)NCC(=O)N[C@H]1C(OCc2ccccc2)O[C@H](COCc2ccc3ccccc3c2)[C@@H](O)[C@@H]1OCc1ccc(Cl)cc1 (stereo partly shown) [Compound 432] | + (Indicates inhibition greater than . . . 50%)
27 | N=C(N)NCCC(=O)N[C@H]1C(OCc2ccccc2)O[C@H](COCc2ccc(Cl)cc2)[C@@H](O)[C@@H]1OCc1ccc(-c2ccccc2)cc1 (stereo partly shown) [Compound 460] | + (Indicates inhibition greater than . . . 50%)

Same assay, conditions: 4.0 Micromolar; Example Library 13

Row | SMILES | MC4 Inhibition at 4.0 Micromolar
28 | N=C(N)NCCC(=O)N[C@H]1C(OCc2ccc(-c3ccccc3)cc2)O[C@H](COCc2ccccc2)[C@@H](O)[C@H]1OCc1ccc(Cl)cc1 (stereo partly shown) [Compound 471] | + (Indicates inhibition greater than . . . 50%)
29 | N=C(N)NCCC(=O)NC1C(OCc2ccc(Cl)cc2)OC(COCc2ccccc2)C(O)C1OCc1ccc2ccccc2c1 (stereo not shown) [Compound 492] | + (Indicates inhibition greater than . . . 50%)
30 | N=C(N)NCCC(=O)NC1C(OCc2ccc(Cl)cc2)OC(COCc2ccc3ccccc3c2)C(O)C1OCc1ccc(Cl)cc1 (stereo not shown) [Compound 488] | + (Indicates inhibition greater than . . . 50%)

Same assay, conditions: 4.0 micromolar compound

Row | SMILES | MC4 Inhibition at 4.0 Micromolar
31 | COC1C(O)C(COCc2ccc3ccccc3c2)OC(OCc2ccc(Cl)cc2)C1NCC(=O)C1CCCN1 (stereo not shown) [Compound 347] | + (Indicates inhibition greater than . . . 50%)
32 | COC1C(O)C(COCc2ccc3ccccc3c2)OC(OCc2ccc(Cl)cc2)C1NC(=O)CNC(=N)N (stereo not shown) [Compound 345] | + (Indicates inhibition greater than . . . 50%)
33 | COC1C(O)C(COCc2ccc3ccccc3c2)OC(OCc2ccc(Cl)cc2)C1NC(=O)CNC(=N)N (stereo not shown) [Compound 349] | + (Indicates inhibition greater than . . . 50%)

Same assay, conditions: 10 micromolar compound; recombinant human receptor membranes (HEK 293)

Row | SMILES | MC4 inhibition at 10 micromolar
34 | CO[C@H]1[C@H](O)[C@@H](COCc2ccc3ccccc3c2)OC(OCc2cccc(O)c2)[C@@H]1NC(=O)CCCNC(=N)N (stereo partly shown) [Compound 117] | + (Indicates inhibition greater than . . . 50%)
35 | CO[C@H]1[C@H](O)[C@@H](COCc2ccc(Cl)cc2)OC(OCCc2ccccc2)[C@@H]1NC(=O)CCCNC(=N)N (stereo partly shown) [Compound 107] | + (Indicates inhibition greater than . . . 50%)
36 | CO[C@H]1[C@H](O)[C@@H](COCc2cccc(O)c2)OC(OCc2ccc(-c3ccccc3)cc2)[C@@H]1NC(=O)CNC(=N)N (stereo partly shown) [Compound 108] | + (Indicates inhibition greater than . . . 50%)
37 | CSC1OC(COC(=O)Cc2ccccc2)C(O)C(OCc2cccc(N)c2)C1NCc1ccccc1 (stereo not shown) [Compound 308] | + (Indicates inhibition greater than . . . 50%)
38 | COC1C(O)C(COCc2ccc(Cl)cc2)OC(OCc2ccc(-c3ccccc3)cc2)C1NC(=O)CCNC(=N)N (stereo not shown) [Compound 64] | + (Indicates inhibition greater than . . . 50%)
39 | CO[C@H]1[C@H](O)[C@@H](COCc2cccc(O)c2)OC(OCc2ccc(Cl)cc2)[C@@H]1NC(=O)CCNC(=N)N (stereo partly shown) [Compound 110] | + (Indicates inhibition greater than . . . 50%)
40 | COC1C(O)C(COCc2ccc3ccccc3c2)OC(OCc2ccc3ccccc3c2)C1NC(=O)CNC(=N)N (stereo not shown) [Compound 71] | + (Indicates inhibition greater than . . . 50%)
41 | CO[C@H]1[C@H](O)[C@@H](COCc2ccc(-c3ccccc3)cc2)OC(OCc2cccc(O)c2)[C@@H]1NC(=O)CCNC(=N)N (stereo partly shown) [Compound 113] | + (Indicates inhibition greater than . . . 50%)
42 | CO[C@H]1[C@H](O)[C@@H](COCc2ccc(-c3ccccc3)cc2)OC(OCCc2ccccc2)[C@@H]1NC(=O)CNC(=N)N (stereo partly shown) [Compound 96] | + (Indicates inhibition greater than . . . 50%)
43 | CSC1O[C@H](COCc2ccccc2)[C@@H](O)[C@H](OCc2cccc(N)c2)[C@H]1NC(=O)Cc1ccccc1 (stereo partly shown) [Compound 317] | + (Indicates inhibition greater than . . . 50%)
44 | CSC1OC(COC(=O)c2c[nH]c3ccccc23)C(O)C(OCc2cccc(N)c2)C1NCc1ccccc1 (stereo not shown) [Compound 309] | + (Indicates inhibition greater than . . . 50%)
45 | CO[C@H]1[C@H](O)[C@@H](COCc2ccc(-c3ccccc3)cc2)OC(OCc2ccc(-c3ccccc3)cc2)[C@@H]1NC(=O)CCCNC(=N)N (stereo partly shown) [Compound 58] | + (Indicates inhibition greater than . . . 50%)

Same assay, conditions: 10 micromolar; Example Library 4

Row | SMILES | MC4 inhibition at 10 micromolar
46 | COCC1OC(OCCc2ccccc2)C(NC(=O)CNC(=N)N)C(OCc2ccccc2)C1O (stereo not shown) [Compound 261] | + (Indicates inhibition greater than . . . 50%)
